Results: ChEMBL document CHEMBL5233247, “Recent advances in DNA gyrase-targeted antimicrobial agents” (Eur J Med Chem, 2020)
Converted amounts (≈) assume the structure as drawn. “And” between values parts separate entries of the source, which are not always exact repeats. Identical values can stand only once.

What was measured:
DNA gyrase [1] = molecular target: DNA gyrase (Escherichia coli, UniProt P0AES4+P0AES6); assay: Inhibition of Escherichia coli DNA gyrase; type: protein-complex assay
[2] = molecular target: T1, DNA gyrase subunit A/DNA gyrase subunit B (Mycobacterium tuberculosis (strain ATCC 25618 / H37Rv), UniProt P9WG45+P9WG47); assay: Inhibition of Mycobacterium tuberculosis (MTB) DNA gyrase using pBR322 DNA by supercoiling assay; type: protein-complex assay
T1 sequence (P9WG45 whole entry): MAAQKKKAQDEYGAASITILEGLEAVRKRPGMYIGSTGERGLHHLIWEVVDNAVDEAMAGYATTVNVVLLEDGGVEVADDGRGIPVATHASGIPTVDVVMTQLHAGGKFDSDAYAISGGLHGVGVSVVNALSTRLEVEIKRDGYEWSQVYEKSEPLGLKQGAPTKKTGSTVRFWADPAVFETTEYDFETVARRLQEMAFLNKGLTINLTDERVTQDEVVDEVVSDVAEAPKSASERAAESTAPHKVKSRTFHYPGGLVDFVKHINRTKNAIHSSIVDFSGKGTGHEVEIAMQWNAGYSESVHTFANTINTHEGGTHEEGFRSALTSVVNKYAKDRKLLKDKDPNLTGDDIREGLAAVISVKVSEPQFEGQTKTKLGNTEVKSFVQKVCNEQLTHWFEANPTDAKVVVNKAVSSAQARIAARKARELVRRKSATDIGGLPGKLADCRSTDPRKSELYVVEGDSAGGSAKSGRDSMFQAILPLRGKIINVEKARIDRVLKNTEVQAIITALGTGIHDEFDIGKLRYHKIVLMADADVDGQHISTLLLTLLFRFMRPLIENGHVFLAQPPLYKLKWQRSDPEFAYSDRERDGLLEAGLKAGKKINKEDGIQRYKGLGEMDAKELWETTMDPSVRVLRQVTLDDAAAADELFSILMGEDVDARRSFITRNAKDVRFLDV
T1 sequence (P9WG47 whole entry): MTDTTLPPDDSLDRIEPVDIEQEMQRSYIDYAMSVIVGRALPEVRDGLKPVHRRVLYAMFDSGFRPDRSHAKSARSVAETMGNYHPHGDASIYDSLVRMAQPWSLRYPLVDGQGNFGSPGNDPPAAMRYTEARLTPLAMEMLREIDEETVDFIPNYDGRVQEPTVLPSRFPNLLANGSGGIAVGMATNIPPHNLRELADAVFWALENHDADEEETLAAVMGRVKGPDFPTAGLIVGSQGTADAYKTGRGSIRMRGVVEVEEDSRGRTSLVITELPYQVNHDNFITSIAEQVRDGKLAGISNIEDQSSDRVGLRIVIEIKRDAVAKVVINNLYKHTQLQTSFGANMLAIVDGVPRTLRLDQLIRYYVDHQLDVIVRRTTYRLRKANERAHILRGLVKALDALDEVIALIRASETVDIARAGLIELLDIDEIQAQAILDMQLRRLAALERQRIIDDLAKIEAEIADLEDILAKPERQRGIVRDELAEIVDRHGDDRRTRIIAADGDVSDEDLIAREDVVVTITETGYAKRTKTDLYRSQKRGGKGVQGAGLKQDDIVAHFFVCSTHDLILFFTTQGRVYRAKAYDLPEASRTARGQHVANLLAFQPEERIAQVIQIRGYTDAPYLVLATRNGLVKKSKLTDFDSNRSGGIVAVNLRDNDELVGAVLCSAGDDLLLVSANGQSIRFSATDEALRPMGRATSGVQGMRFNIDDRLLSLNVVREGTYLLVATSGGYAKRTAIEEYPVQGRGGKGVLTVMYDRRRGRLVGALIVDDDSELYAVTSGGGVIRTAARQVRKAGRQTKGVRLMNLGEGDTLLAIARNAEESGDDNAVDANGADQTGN

[3] = system: Mycobacterium tuberculosis; assay: Antimycobacterial activity against Mycobacterium tuberculosis incubated for 7 days by MABA assay; type: functional; conditions: 168 h, time 7 day
[4] = system: Mycobacterium tuberculosis; assay: Anti-tubercular activity against Mycobacterium tuberculosis H37Rv strain; type: functional
Staphylococcus aureus [5] = assay: Antibacterial activity against methicillin-resistant Staphylococcus aureus; type: functional, organism-based
Staphylococcus aureus [6] = assay: Antibacterial activity against methicillin-sensitive Staphylococcus aureus; type: functional, organism-based
DNA gyrase [7] = molecular target: T2, DNA gyrase (Staphylococcus aureus, UniProt P0A0K8+P20831); assay: Inhibition of Staphylococcus aureus DNA gyrase; type: protein-complex assay
T2 sequence (P0A0K8 whole entry): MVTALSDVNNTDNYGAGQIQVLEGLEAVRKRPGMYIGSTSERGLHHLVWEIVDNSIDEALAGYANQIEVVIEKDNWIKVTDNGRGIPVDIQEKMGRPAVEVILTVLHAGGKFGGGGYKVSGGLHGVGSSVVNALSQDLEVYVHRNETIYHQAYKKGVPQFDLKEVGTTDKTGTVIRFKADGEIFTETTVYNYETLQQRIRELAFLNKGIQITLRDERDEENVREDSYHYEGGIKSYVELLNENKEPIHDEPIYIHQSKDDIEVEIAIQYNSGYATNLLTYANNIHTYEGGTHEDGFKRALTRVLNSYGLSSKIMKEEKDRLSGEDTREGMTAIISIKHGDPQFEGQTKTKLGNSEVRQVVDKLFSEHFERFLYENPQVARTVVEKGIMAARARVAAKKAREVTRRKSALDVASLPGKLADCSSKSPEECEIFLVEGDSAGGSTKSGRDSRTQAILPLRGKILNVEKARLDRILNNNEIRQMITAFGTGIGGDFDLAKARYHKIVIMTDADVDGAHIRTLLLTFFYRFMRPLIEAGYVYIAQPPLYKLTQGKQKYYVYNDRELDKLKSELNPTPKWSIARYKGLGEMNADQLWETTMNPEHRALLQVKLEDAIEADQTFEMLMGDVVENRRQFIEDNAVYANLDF
T2 sequence (P20831 whole entry): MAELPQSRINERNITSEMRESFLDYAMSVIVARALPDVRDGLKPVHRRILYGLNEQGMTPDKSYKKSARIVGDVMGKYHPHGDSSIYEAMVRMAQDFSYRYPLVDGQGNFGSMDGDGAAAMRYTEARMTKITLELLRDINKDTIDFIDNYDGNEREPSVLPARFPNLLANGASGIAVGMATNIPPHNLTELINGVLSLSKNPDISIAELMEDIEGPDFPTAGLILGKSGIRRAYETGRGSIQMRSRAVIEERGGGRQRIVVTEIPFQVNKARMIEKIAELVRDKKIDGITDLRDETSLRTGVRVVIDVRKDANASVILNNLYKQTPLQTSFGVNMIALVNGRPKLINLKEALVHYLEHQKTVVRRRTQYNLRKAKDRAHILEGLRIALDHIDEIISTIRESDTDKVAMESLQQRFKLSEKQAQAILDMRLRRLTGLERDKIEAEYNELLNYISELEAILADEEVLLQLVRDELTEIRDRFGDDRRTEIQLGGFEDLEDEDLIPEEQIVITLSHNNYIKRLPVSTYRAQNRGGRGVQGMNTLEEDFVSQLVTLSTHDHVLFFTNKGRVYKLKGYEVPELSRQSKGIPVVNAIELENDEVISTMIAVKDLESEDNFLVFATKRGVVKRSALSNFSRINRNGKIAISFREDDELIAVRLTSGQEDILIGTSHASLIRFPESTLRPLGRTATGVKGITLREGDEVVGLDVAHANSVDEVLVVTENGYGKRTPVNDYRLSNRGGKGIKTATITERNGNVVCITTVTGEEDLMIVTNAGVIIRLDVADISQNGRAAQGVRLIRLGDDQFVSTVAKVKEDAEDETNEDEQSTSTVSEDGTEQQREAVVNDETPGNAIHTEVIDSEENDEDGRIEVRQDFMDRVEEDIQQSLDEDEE

[8] = Inhibition of Salmonella typhimurium DNA gyrase; design: species or system Salmonella enterica subsp. enterica serovar Typhimurium
Salmonella typhimurium = assay: Antibacterial activity against Salmonella typhimurium assessed as inhibition was bacterial growth by broth micro dilution method; type: functional, Salmonella enterica subsp. enterica serovar Typhimurium; conditions: Salmonella enterica
Salmonella enterica = assay: Antibacterial activity against Salmonella enterica assessed as inhibition was bacterial growth by broth micro dilution method; type: functional
[9] = system: Aggregatibacter actinomycetemcomitans; assay: Antibacterial activity against Aggregatibacter actinomycetemcomitans; type: functional
Staphylococcus aureus [10] = assay: Antimicrobial activity against Staphylococcus aureus ATCC 25923 incubated for 18 to 24 hrs by double micro-dilution method; type: functional; conditions: time 18-24 hrs
Enterococcus faecalis [11] = assay: Antimicrobial activity against Enterococcus faecalis ATCC 29212 incubated for 18 to 24 hrs by double micro-dilution method; type: functional; conditions: time 18-24 hrs
Pseudomonas aeruginosa [12] = assay: Antimicrobial activity against Pseudomonas aeruginosa ATCC 27853 incubated for 18 to 24 hrs by double micro-dilution method; type: functional; conditions: time 18-24 hrs
Klebsiella pneumoniae = assay: Antimicrobial activity against Klebsiella pneumoniae ATCC 13883 incubated for 18 to 24 hrs by double micro-dilution method; type: functional; conditions: time 18-24 hrs
[13] = system: Acinetobacter haemolyticus; assay: Antimicrobial activity against Acinetobacter haemolyticus ATCC 19002 incubated for 18 to 24 hrs by double micro-dilution method; type: functional; conditions: time 18-24 hrs
Escherichia coli [14] = assay: Antimicrobial activity against Escherichia coli MTCC 443 assessed as zone of inhibition incubated for 24 hrs by agar well diffusion method; type: functional
Pseudomonas aeruginosa [15] = assay: Antimicrobial activity against Pseudomonas aeruginosa MTCC 424 assessed as zone of inhibition incubated for 24 hrs by agar well diffusion method; type: functional
Staphylococcus aureus [16] = assay: Antimicrobial activity against Staphylococcus aureus MTCC 96 assessed as zone of inhibition incubated for 24 hrs by agar well diffusion method; type: functional
Streptococcus pyogenes = assay: Antimicrobial activity against […] MTCC 442 assessed as zone of inhibition incubated for 24 hrs by agar well diffusion method; type: functional
Bacillus subtilis = assay: Antibacterial activity against Bacillus subtilis DSM 10 by microdilution assay; type: functional
Escherichia coli [17] = assay: Antibacterial activity against Escherichia coli DSM 1116 by microdilution assay; type: functional
Mycolicibacterium phlei = assay: Antibacterial activity against Mycobacterium phlei DSM 750 by microdilution assay; type: functional
DNA gyrase [18] = molecular target: T2, DNA gyrase; assay: Inhibition of Staphylococcus aureus DNA gyrase assessed as relaxation of pBR322 DNA by supercoiling assay; type: protein-complex assay
Escherichia coli [19] = assay: Antibacterial activity against Escherichia coli assessed as zone of inhibition; type: functional
Staphylococcus aureus [20] = assay: Antibacterial activity against healthcare-acquired methicillin-resistant Staphylococcus aureus; type: functional
Staphylococcus aureus [21] = assay: Antibacterial activity against community-acquired methicillin-resistant Staphylococcus aureus; type: functional
Enterococcus faecalis [22] = assay: Antibacterial activity against Enterococcus faecalis; type: functional
Streptococcus pneumoniae = assay: Antibacterial activity against Streptococcus pneumoniae; type: functional
Acinetobacter baumannii = assay: Antibacterial activity against Acinetobacter baumannii; type: functional
[23] = molecular target: T1, DNA gyrase subunit A/DNA gyrase subunit B; assay: Inhibition of Mycobacterium tuberculosis DNA gyrase; type: protein-complex assay
[24] = system: Mycobacterium tuberculosis; assay: Antitubercular activity against Mycobacterium tuberculosis H37Rv MTCC-200; type: functional

O=C1COc2cc(F)c(CNC3CCN(CCn4c(=O)c5nocc5c5ccc(F)cc54)CC3)nc2N1
IC50 (DNA gyrase [1]): 0.411 µM

O=c1nc(N2CCN(C(=S)Nc3ccc(Cl)cc3)CC2)sc2ccc([N+](=O)[O-])cc12
IC50 [2]: 0.82 µM
MIC [3]: 2.83 µM (≈ 1.31 µg/mL)

COc1cc(/C=N/Nc2nc(-c3ccc([N+](=O)[O-])cc3)cs2)ccc1Oc1ccnc2cc(Cl)ccc12
MIC [4]: 3.12 µM (≈ 1.66 µg/mL)

CCn1cc(C(=O)N[C@H](CCCNC(=N)N)C(=O)N[C@@H](CC2CCCCC2)C(=O)N[C@H](CCCNC(=N)N)C(=O)N[C@@H](CC2CCCCC2)C(=O)N[C@H](CCCNC(=N)N)C(=O)N[C@@H](CC2CCCCC2)C(N)=O)c(=O)c2ccc(C)nc21
IC50 (Staphylococcus aureus [5]): 1 µg/mL (≈ 0.862 µM)
IC50 (Staphylococcus aureus [6]): 18 µg/mL (≈ 15.5 µM)
IC50 (DNA gyrase [7]): 25 µM

COc1c(N2CC3(CC3)[C@@](C)(N)C2)c(F)cc2c(=O)c(C(=O)O)cn([C@@H]3C[C@@H]3F)c12
IC50 [8]: 0.32 µg/mL and 0.25 µg/mL
MIC (Salmonella typhimurium): 0.13 µg/mL (≈ 0.31 µM)
MIC (Salmonella enterica): 0.06 µg/mL (≈ 0.143 µM)

CCn1cc(-c2nc(NC(=O)c3ccccc3)n[nH]2)c(=O)c2cc(Br)c(C)nc21
MIC [9]: 4.25 µM (≈ 1.93 µg/mL)

COc1ccc2c3conc3c(=O)n(CCN3CCC(NCc4nc5c(cc4F)OCC(=O)N5)CC3)c2c1
IC50 (DNA gyrase [1]): 0.402 µM

O=C(O)c1cn(C2CC2)c2cc(N3CCN(Cn4nc(CN5CCN(c6ccccc6)CC5)n(Cc5ccccc5)c4=O)CC3)c(F)cc2c1=O
IC50 (DNA gyrase [1]): 0.75 µM
MIC (Staphylococcus aureus [10]): 8 µg/mL (≈ 11.5 µM)
MIC (Enterococcus faecalis [11]): 8 µg/mL (≈ 11.5 µM)
MIC (Pseudomonas aeruginosa [12]): 0.125 µg/mL (≈ 0.18 µM)
MIC (Klebsiella pneumoniae): 0.125 µg/mL (≈ 0.18 µM)
MIC [13]: 0.125 µg/mL (≈ 0.18 µM)

COc1ccc2ccc(F)c(CC(=O)N/N=C/c3ccc(F)cc3F)c2n1
IC50 (DNA gyrase [7]): 375 µM
inhibition zone (IZ) (Escherichia coli [14]): 21 mm
inhibition zone (IZ) (Pseudomonas aeruginosa [15]): 20 mm
inhibition zone (IZ) (Staphylococcus aureus [16]): 18 mm
inhibition zone (IZ) (Streptococcus pyogenes): 20 mm

O=C(O)CNC(=O)Cc1csc(NC(=O)c2cc(Br)c(Br)[nH]2)n1
IC50 (DNA gyrase [1]): 15.9 µM

COc1c(NC(=O)c2ccc(NC(=O)C(C)(C)NC(=O)c3ccc(NC(=O)/C(C)=C/c4ccc(O)cc4)cc3)c(OC)c2O)ccc(C(=O)O)c1O
MIC (Bacillus subtilis): 0.5 µM (≈ 0.356 µg/mL)
MIC (Escherichia coli [17]): 0.25 µM (≈ 0.178 µg/mL)
MIC (Escherichia coli [17]; Escherichia coli, DSM 1116, read-out: MIC): 0.5 µM (≈ 0.356 µg/mL)
MIC (Mycolicibacterium phlei): 2 µM (≈ 1.43 µg/mL)

O=C(O)C(=O)Nc1ccc(NC(=O)c2cc(Br)c(Br)[nH]2)cc1
IC50 (DNA gyrase [1]): 0.18 µM

COc1cc2c(cc1OCCCC(=O)Nc1cc(C(=O)Nc3ccc4occc4c3)n(C)c1)N=C[C@@H]1CCCN1C2=O
IC50 (DNA gyrase [18]): 2.9 µM

CCn1cc(-c2nc(/N=C/c3ccc(Br)cc3)n[nH]2)c(=O)c2cc(Br)c(C)nc21
IC50 (DNA gyrase [1]): 3.37 µM
inhibition zone (IZ) (Escherichia coli [19]): 23 mm

COC(=O)c1ccc(CNC(=O)[C@H](Cc2ccc(O)cc2)NC(=O)c2cc(Br)c(Br)[nH]2)cc1
IC50 (DNA gyrase [1]): 0.97 µM

COc1c(N2CC3CCCCC3C2)c(F)cc2c(=O)c(C(=O)N3CCSC3)cn(C3CC3)c12 (stereo not drawn)
MIC (Staphylococcus aureus [6]): 0.79 µg/mL (≈ 1.68 µM)
MIC (Staphylococcus aureus [20]): 0.79 µg/mL (≈ 1.68 µM)
MIC (Staphylococcus aureus [21]): 25 µg/mL (≈ 53 µM)
MIC (Enterococcus faecalis [22]): 12.6 µg/mL (≈ 26.7 µM)
MIC (Streptococcus pneumoniae): 50 µg/mL (≈ 106 µM)
MIC (Acinetobacter baumannii): 101 µg/mL (≈ 214 µM)
IC50 [23]: 105 µM

COc1c(NC(=O)c2ccc(NC(=O)[C@H](CC#N)NC(=O)c3ccc(NC(=O)/C(C)=C/c4ccc(O)cc4)cc3)c(OC)c2O)ccc(C(=O)O)c1O
MIC (Bacillus subtilis): 0.062 µM (≈ 0.0449 µg/mL)
MIC (Mycolicibacterium phlei): 2 µM (≈ 1.45 µg/mL)

CCNC(=O)Nc1nc2ccc(NC(=O)Cc3csc(NC(C)=O)n3)cc2s1
IC50 (DNA gyrase [1]): 5.6 µM

CCn1cc(C(=O)N[C@@H](CC2CCCCC2)C(=O)N[C@H](CCCNC(=N)N)C(=O)N[C@@H](CC2CCCCC2)C(=O)N[C@H](CCCNC(=N)N)C(=O)N[C@@H](CC2CCCCC2)C(=O)N[C@H](CCCNC(=N)N)C(=O)N[C@@H](CC2CCCCC2)C(N)=O)c(=O)c2ccc(C)nc21
IC50 (Staphylococcus aureus [5]): 13 µg/mL (≈ 9.9 µM)
IC50 (Staphylococcus aureus [6]): 13 µg/mL (≈ 9.9 µM)
IC50 (DNA gyrase [7]): 25 µM

CCn1cc(C(=O)O)c(=O)c2ccc(C)nc21 [NALIDIXIC ACID]
IC50 (Staphylococcus aureus [5]): 47 µg/mL (≈ 202 µM)
IC50 (Staphylococcus aureus [6]): 47 µg/mL (≈ 202 µM)

NC(=O)c1cnccn1 [PYRAZINAMIDE]
MIC [4]: 3.12 µM (≈ 0.384 µg/mL)

COc1c(N2CCCCC2)c(F)cc2c(=O)c(C(=O)N3CCSC3)cn(C3CC3)c12
MIC (Staphylococcus aureus [6]): 0.39 µg/mL (≈ 0.904 µM)
MIC (Staphylococcus aureus [20]): 0.62 µg/mL (≈ 1.44 µM)
MIC (Staphylococcus aureus [21]): 25 µg/mL (≈ 57.9 µM)
MIC (Enterococcus faecalis [22]): 12.6 µg/mL (≈ 29.2 µM)
MIC (Streptococcus pneumoniae): 25 µg/mL (≈ 57.9 µM)
MIC (Acinetobacter baumannii): 12.6 µg/mL (≈ 29.2 µM)
IC50 [23]: 105 µM

O=C1Nc2ccccc2/C1=C/c1ccc(OC(=O)c2ccccc2)cc1
MIC [24]: 73 µg/mL (≈ 214 µM)

COc1ccc(C(=O)Oc2ccc(/C=C3\C(=O)Nc4ccccc43)cc2)cc1OC
MIC [24]: 31 µg/mL (≈ 77.2 µM)
